Target: T1, human leukocyte elastase (HLE) (Homo sapiens, UniProt P08246)
T1 sequence (P08246 30-267): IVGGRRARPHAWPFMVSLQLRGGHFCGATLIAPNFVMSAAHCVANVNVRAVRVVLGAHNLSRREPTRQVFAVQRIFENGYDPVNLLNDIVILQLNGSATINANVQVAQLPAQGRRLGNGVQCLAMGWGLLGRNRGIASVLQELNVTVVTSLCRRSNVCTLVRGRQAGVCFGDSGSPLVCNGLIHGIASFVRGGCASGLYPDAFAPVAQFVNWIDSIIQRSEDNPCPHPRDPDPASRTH
Experiment: Inactivation of human leukocyte elastase: kon measured, Ki* = koff/kon calculated
Type: biochemical
Conditions: Elastase; Ki* = koff/kon, not a truly reversible inhibition constant
Procedure: Thus, instead of measuring a Ki, a Ki* is calculated which is defined as the ratio of the koff/kon, the rate of reactivation of the enzyme to the rate of inactivation of the enzyme. The values of koff and kon are measured and Ki* is then calculated.
The rate of inactivation, kon, of enzymatic activity was determined for the compounds tested by measuring the enzyme activity of an aliquot of the respective enzyme as a function of time after addition of the test compound. […] The rate of inactivation is then equal to kon =(kobs)/([I]) [formula] where [I] is the concentration of the inhibiting compound.
The reactivation constant, koff, is similarly determined and the inhibition constant, Ki*, is then calculated as Ki * = koff /kon [formula]

Compared with `O=C1c2ccccc2S(=O)(=O)N1CSc1nnnn1C1CCCCC1` [Example 9, 2-(1-cyclohexyl-1H-tetrazol-5-ylthiomethyl)saccharin], `Cn1cnnc1SCN1C(=O)c2ccccc2S1(=O)=O` [Example 30AC] is 7.7-fold higher in Ki: 32 nM for the first, 246 nM for the second. The first binds more tightly here.

Compared with `O=C1c2cccc(Cl)c2S(=O)(=O)N1CSc1nnnn1-c1ccccc1` [Example 30AG], `CCOc1cccc2c1C(=O)N(CSc1nnnn1-c1ccccc1)S2(=O)=O` [Example 30AT] is lower in Ki: greater than 1000 nM for the first, 3 nM for the second. The second binds more tightly here.

Going from `CC(C)Oc1cccc2c1C(=O)N(CSc1nnnn1-c1ccccc1)S2(=O)=O` [Example 30AU] to `O=C1c2c(-c3ccccc3)cccc2S(=O)(=O)N1CSc1nnnn1-c1ccccc1` [Example 30BC], the Ki rises from 17.5 nM to 80 nM (4.6-fold).

`O=C1c2ccccc2S(=O)(=O)N1COc1c(Cl)cccc1Cl` [Example 30BB] and `O=C1c2ccccc2S(=O)(=O)N1CSc1ncccn1` [Example 30F, 2-(2-pyrimidylthiomethyl)saccharin] cannot be ordered by Ki: greater than 500 nM for the first, greater than 85000 nM for the second.

`O=C1c2ccccc2S(=O)(=O)N1Cn1nnn(-c2ccccc2)c1=O` [Example 30BH] and `CC(=O)Nc1ccc2c(c1)C(=O)N(CSc1nnnn1-c1ccccc1)S2(=O)=O` [Example 37, 5-acetylamino-2-(1-phenyl-1H-tetrazol-5-ylthiomethyl)saccharin] cannot be ordered by Ki: greater than 10000 nM for the first, greater than 90000 nM for the second.

Same assay, conditions: Elastase; rate of inactivation kon = kobs/[I]; value is kon x 10^-3

First: CCc1cccc2c1C(=O)N(CCl)S2(=O)=O [Example 28]
Second: O=C1c2ccccc2C(=O)N1CN1C(=O)c2ccccc2S1(=O)=O [Example 30BF]
The “10^-3 x kon” value of the first is higher: 50.7 M^-1 sec^-1 for the first, 0.02 M^-1 sec^-1 for the second.

With `O=C1c2ccccc2S(=O)(=O)N1CSc1nc(-c2ccccc2)ns1` [Example 30AF] the “10^-3 x kon” value was 4.2 M^-1 sec^-1.

Same assay, conditions: Elastase; rate of inactivation kon = kobs/[I]; value is kon x 10^-3; read-out: 10^-3 x kon

Compared with `O=C1c2c(Cl)cccc2S(=O)(=O)N1CSc1nnnn1-c1ccccc1` [Example 4, 4-chloro-2-(1-phenyl-1H-tetrazol-5-ylthiomethyl) saccharin], `CCOc1cccc2c1C(=O)N(CSc1nnnn1-c1ccccc1)S2(=O)=O` [Example 30AT] is 2.3-fold higher in kinact/KI: 20000 M⁻¹ s⁻¹ for the first, 45300 M⁻¹ s⁻¹ for the second.

`CCCCCCC(=O)Nc1cccc(-n2nnnc2SCN2C(=O)c3ccccc3S2(=O)=O)c1` [Example 7, 2-[1-(3-heptanamidophenyl)-1H-tetrazol-5-ylthiomethyl]saccharin] and `O=C(O)CCC(=O)Nc1cccc(-n2nnnc2SCN2C(=O)c3ccccc3S2(=O)=O)c1` [Example 35, 2-[1-(3-succinoylaminophenyl)-1H-tetrazol-5-ylthiomethyl]saccharin] are within 1.5-fold of each other in kinact/KI: 5200 M⁻¹ s⁻¹ for the first, 3600 M⁻¹ s⁻¹ for the second.

First: O=C1c2ccccc2S(=O)(=O)N1CSc1nnnn1C1CCCCC1 [Example 9, 2-(1-cyclohexyl-1H-tetrazol-5-ylthiomethyl)saccharin]
Second: O=C1c2ccccc2S(=O)(=O)N1CSc1nnnn1CCO [Example 30AQ, 2-[1-(2-hydroxyethyl)-1H-tetrazol-5-ylthiomethyl]saccharin]
The kinact/KI of the first is 2.8-fold higher: 2500 M⁻¹ s⁻¹ for the first, 900 M⁻¹ s⁻¹ for the second.

First: O=C1c2ccccc2S(=O)(=O)N1COc1ccc([N+](=O)[O-])cc1 [Example 15, 2-(4-nitrophenoxymethyl)saccharin]
Second: O=C1c2ccccc2S(=O)(=O)N1CSc1nc2ccc([N+](=O)[O-])cc2s1 [Example 30BD]
The kinact/KI of the first is 3.7-fold lower: 3200 M⁻¹ s⁻¹ for the first, 11700 M⁻¹ s⁻¹ for the second.

Going from `COC(=O)C(Sc1nnnn1-c1ccccc1)N1C(=O)c2ccccc2S1(=O)=O` (stereo not drawn) [Example 17, methyl 2-(1-phenyl-1H-tetrazol-5-ylthio)2-(2-saccharinyl)acetate] to `O=C1c2c(-c3ccccc3)cccc2S(=O)(=O)N1CSc1nnnn1-c1ccccc1` [Example 30BC], the kinact/KI rises from 2900 M⁻¹ s⁻¹ to 5800 M⁻¹ s⁻¹ (2-fold).

Compared with `O=C1c2c(Br)cccc2S(=O)(=O)N1CCl` [Example 21, 2-chloromethyl-4-bromosaccharin], `COc1cccc2c1C(=O)N(CCl)S2(=O)=O` [Example 22A, 2-chloromethyl-4-methoxysaccharin] is 77-fold lower in kinact/KI: 950000 M⁻¹ s⁻¹ for the first, 12400 M⁻¹ s⁻¹ for the second.

Going from `CCC(C)c1cccc2c1C(=O)N(CCl)S2(=O)=O` (stereo not drawn) [Example 22B, 2-chloromethyl-4-sec.-butylsaccharin] to `CC(C)c1cccc2c1C(=O)N(CCl)S2(=O)=O` [Example 22E], the kinact/KI rises from 2400 M⁻¹ s⁻¹ to 4700 M⁻¹ s⁻¹ (2-fold).

First: CCC(CC)c1cccc2c1C(=O)N(CCl)S2(=O)=O [Example 22C, 2-chloromethyl-4-(3-pentyl)saccharin]
Second: CCOc1cccc2c1C(=O)N(CCl)S2(=O)=O [Example 22H]
The kinact/KI of the first is 4.2-fold higher: 105000 M⁻¹ s⁻¹ for the first, 25000 M⁻¹ s⁻¹ for the second.

Going from `O=C1c2cccc(Cl)c2S(=O)(=O)N1CCl` [Example 22D] to `Cc1ccc(C)c2c1C(=O)N(CCl)S2(=O)=O` [Example 29, 2-chloromethyl-4,7-dimethylsaccharin], the kinact/KI falls from 75800 M⁻¹ s⁻¹ to 1100 M⁻¹ s⁻¹ (69-fold).

Compared with `COc1ccc2c(c1OC)C(=O)N(CCl)S2(=O)=O` [Example 22F], `COC(=O)c1cccc2c1C(=O)N(CCl)S2(=O)=O` [Example 22G] is 6.7-fold lower in kinact/KI: 20000 M⁻¹ s⁻¹ for the first, 3000 M⁻¹ s⁻¹ for the second.

Going from `O=C1c2ccccc2S(=O)(=O)N1CF` [Example 27, 2-fluoromethylsaccharin] to `Cc1nnc(SCN2C(=O)c3ccccc3S2(=O)=O)s1` [Example 30AB], the kinact/KI falls from 7500 M⁻¹ s⁻¹ to 2800 M⁻¹ s⁻¹ (2.7-fold).

Compared with `O=C(O)c1cccc(-n2nnn(CN3C(=O)c4ccccc4S3(=O)=O)c2=S)c1` [Example 30-O], `O=C1c2ccccc2S(=O)(=O)N1Cn1nnn(-c2cccnc2)c1=S` [Example 30R] is 77-fold higher in kinact/KI: 30 M⁻¹ s⁻¹ for the first, 2300 M⁻¹ s⁻¹ for the second.

Going from `Cn1cnnc1SCN1C(=O)c2ccccc2S1(=O)=O` [Example 30AC] to `Cn1nnc(SCN2C(=O)c3ccccc3S2(=O)=O)n1` [Example 30X], the kinact/KI rises from 190 M⁻¹ s⁻¹ to 550 M⁻¹ s⁻¹ (2.9-fold).

Going from `CSc1nn(CN2C(=O)c3ccccc3S2(=O)=O)c(=S)s1` [Example 30AD] to `O=C1c2ccccc2S(=O)(=O)N1CSc1nnc(S)s1` [Example 30AH, 2-(5-mercapto-1,3,4-thiadiazol-2-ylthiomethyl)saccharin], the kinact/KI falls from 7000 M⁻¹ s⁻¹ to 1100 M⁻¹ s⁻¹ (6.4-fold).

Compared with `CC(C)c1cccc2c1C(=O)N(Cn1nnn(-c3ccccc3)c1=S)S2(=O)=O` [Example 30AJ], `CC(C)c1cccc2c1C(=O)N(Cn1nnn(-c3cccnc3)c1=S)S2(=O)=O` [Example 30Z] is 39-fold higher in kinact/KI: 1800 M⁻¹ s⁻¹ for the first, 70000 M⁻¹ s⁻¹ for the second.

First: Cc1nnc(SCN2C(=O)c3c(C(C)C)cccc3S2(=O)=O)s1 [Example 30AM]
Second: CC(C)c1cccc2c1C(=O)N(CSc1nnnn1C)S2(=O)=O [Example 30AN]
The kinact/KI of the first is 1.5-fold lower: 12300 M⁻¹ s⁻¹ for the first, 19000 M⁻¹ s⁻¹ for the second.

Compared with `CCOC(=O)Cn1nnnc1SCN1C(=O)c2ccccc2S1(=O)=O` [Example 30AP], `O=C(O)Cn1nnnc1SCN1C(=O)c2ccccc2S1(=O)=O` [Example 34, 2-[1-(2-carboxymethyl)-1H-tetrazol-5-ylthiomethyl]saccharin] is 3.2-fold lower in kinact/KI: 1300 M⁻¹ s⁻¹ for the first, 400 M⁻¹ s⁻¹ for the second.

Compared with `COC(=O)c1cn(-c2ccccc2)c(SCN2C(=O)c3ccccc3S2(=O)=O)n1` [Example 30AR], `O=C1c2ccccc2S(=O)(=O)N1CSc1nncn1-c1ccccc1` [Example 30I] is 1.5-fold higher in kinact/KI: 300 M⁻¹ s⁻¹ for the first, 450 M⁻¹ s⁻¹ for the second.

Compared with `CN(C)C(=O)Cn1nnnc1SCN1C(=O)c2ccccc2S1(=O)=O` [Example 30AS], `CCc1cccc2c1C(=O)N(CSc1nnnn1CC(=O)N(C)C)S2(=O)=O` [Example 30AV] is 4.5-fold higher in kinact/KI: 1700 M⁻¹ s⁻¹ for the first, 7600 M⁻¹ s⁻¹ for the second.

First: CC(C)Oc1cccc2c1C(=O)N(CSc1nnnn1-c1ccccc1)S2(=O)=O [Example 30AU]
Second: O=C1c2ccc([N+](=O)[O-])cc2S(=O)(=O)N1CSc1nnnn1-c1ccccc1 [Example 31C]
The kinact/KI of the first is 2.6-fold higher: 8900 M⁻¹ s⁻¹ for the first, 3400 M⁻¹ s⁻¹ for the second.

First: CC(C)c1cccc2c1C(=O)N(CSc1nnnn1CC(=O)N(C)C)S2(=O)=O [Example 30AW]
Second: CCOc1cccc2c1C(=O)N(CSc1nnnn1CC(=O)N(C)C)S2(=O)=O [Example 30AX]
The kinact/KI of the first is 4-fold higher: 30000 M⁻¹ s⁻¹ for the first, 7500 M⁻¹ s⁻¹ for the second.

Going from `O=C1c2ccccc2S(=O)(=O)N1CSc1nc2ccc([N+](=O)[O-])cc2o1` [Example 30BE] to `Nc1cccc(-n2nnnc2SCN2C(=O)c3ccccc3S2(=O)=O)c1` [Example 30C, 2-[1-(3-aminophenyl)-1H-tetrazol-5-ylthiomethyl]saccharin], the kinact/KI falls from 7400 M⁻¹ s⁻¹ to 2500 M⁻¹ s⁻¹ (3-fold).

First: O=C1c2ccccc2S(=O)(=O)N1CSc1nnnn1CCN1CCOCC1 [Example 30BG]
Second: CCc1cccc2c1C(=O)N(CSc1nnnn1CCN1CCOCC1)S2(=O)=O [Example 30J]
The kinact/KI of the first is 8.2-fold lower: 1700 M⁻¹ s⁻¹ for the first, 14000 M⁻¹ s⁻¹ for the second.

Going from `CC(C)c1cccc2c1C(=O)N(CSc1nnnn1CCN1CCOCC1)S2(=O)=O` [Example 30BI] to `O=C1c2ccccc2S(=O)(=O)N1CSc1nnc(SCCN2CCOCC2)s1` [Example 33, 2-(5-[2-(4-morpholinyl)ethylthio]-1,3,4-thiadiazol-2-ylthiomethyl)saccharin], the kinact/KI falls from 39000 M⁻¹ s⁻¹ to 3600 M⁻¹ s⁻¹ (11-fold).

First: O=C(O)c1ccc(-n2nnnc2SCN2C(=O)c3ccccc3S2(=O)=O)cc1 [Example 30D]
Second: O=C1c2ccccc2S(=O)(=O)N1CSc1nnnn1-c1cccnc1 [Example 30Q]
The kinact/KI of the first is 1.7-fold lower: 800 M⁻¹ s⁻¹ for the first, 1380 M⁻¹ s⁻¹ for the second.

Compared with `COC(=O)c1cc(C(=O)OC)cc(-n2nnnc2SCN2C(=O)c3ccccc3S2(=O)=O)c1` [Example 30E], `COCCOCCOc1ccc(OC)c2c1S(=O)(=O)N(CSc1nnnn1-c1ccccc1)C2=O` [Example 30M] is 7.3-fold lower in kinact/KI: 7300 M⁻¹ s⁻¹ for the first, 1000 M⁻¹ s⁻¹ for the second.

First: O=C1C=Cc2ccc(OCN3C(=O)c4ccccc4S3(=O)=O)c3cccc1c23 [Example 30G]
Second: O=C1c2ccccc2S(=O)(=O)N1CS(=O)(=O)c1c(Cl)cccc1Cl [Example 32A, 2-(2,6-dichlorophenylsulfonylmethyl)saccharin]
The kinact/KI of the first is 16-fold higher: 9300 M⁻¹ s⁻¹ for the first, 600 M⁻¹ s⁻¹ for the second.

Going from `CCOc1ccc(OCCOCCOC)c2c1C(=O)N(CSc1nnnn1-c1ccccc1)S2(=O)=O` [Example 30L] to `O=C1c2ccccc2S(=O)(=O)N1CSc1nnc2ccccn12` [Example 30N], the kinact/KI falls from 6500 M⁻¹ s⁻¹ to 250 M⁻¹ s⁻¹ (26-fold).

First: CN(C)CCSc1nnc(SCN2C(=O)c3ccccc3S2(=O)=O)s1 [Example 33B, 2-(5-[2-(N,N-dimethylamino)ethylthio]-1,3,4-thiadiazol-2-ylthiomethyl)saccharin]
Second: O=C1c2ccccc2S(=O)(=O)N1CSc1nnc(SCCN2CCCCC2)s1 [Example 33C, 2-(5-[2-(1-piperidinyl)ethylthio]-1,3,4-thiadiazol-2-ylthiomethyl) saccharin]
The kinact/KI of the first is 20-fold higher: 4000 M⁻¹ s⁻¹ for the first, 200 M⁻¹ s⁻¹ for the second.

Same assay, conditions: read-out: 10^-3 x kon

`O=C1c2cc([N+](=O)[O-])ccc2S(=O)(=O)N1CSc1nnnn1-c1ccccc1` [Example 11, 5-nitro-2-(1-phenyl-1H-tetrazol-5-ylthiomethyl)saccharin] was tested, and the kinact/KI was 4600 M⁻¹ s⁻¹.
